Reference: PMC12022903, “Evaluation of drug-drug interaction between Suraxavir Marboxil (GP681) and itraconazole, and assessment of the impact of gene polymorphism” (Frontiers in Pharmacology, 2025)
Where two headings read alike, the source gives them in different places.

Legend:
[1] = type: in vivo
Experimental: This single-center, open-label, self-controlled, fixed-sequence study, sponsored by Qingfeng Pharmaceutical Group Co., Ltd., was conducted at a single clinical research site in the China–Japan Friendship Hospital (Beijing, China). Each subject received the following treatment: Suraxavir Marboxil (GP681) 20 mg in the fasted state on day 1 and day 26. Itraconazole capsules (Sporanox®: Xi’an Yangsen Pharmaceutical Co., Ltd., China) 0.2 g twice daily (BID, bis in die) on day 22. Itraconazole 0.2 g daily from day 23 to day 36 [including day 26, when itraconazole was co-administrated with Suraxavir Marboxil (GP681)]. The washout period is 21 days (Figure 2).
Safety was assessed through physical examination, vital sign measurements, clinical laboratory tests, 12-lead electrocardiograms, and assessment of self-reported symptoms. Adverse events were collected from the first dose through the end of the study. All safety data collected were assessed for severity and relationship to each study drug, Suraxavir Marboxil (GP681) or itraconazole. The severity of an adverse event was graded according to Common Terminology Criteria for Adverse Events (CTCAE) v5.0. For each adverse event occurred, investigators continued to follow up until it was resolved. Adverse event analysis is based on Safety Set (SS), coded with MedDRA version 26.0. Adverse events will be summarized by system organ class (SOC) and preferred term (PT) in terms of number of cases, occurrences, and incidence rate.

[2] = system: OAT3; parameters: method as in unpublished data; details: preclinical studies; ref unpublished data; cited from earlier work
[3] = system: OATP1B1; parameters: method as in unpublished data; details: preclinical studies; ref unpublished data; cited from earlier work
[4] = system: OATP1B3; parameters: method as in unpublished data; details: preclinical studies; ref unpublished data; cited from earlier work
[5] = system: liver enzymes; parameters: method as in unpublished data; details: preclinical studies; ref unpublished data; cited from earlier work
[6] = system: MDR1; parameters: method as in unpublished data; details: preclinical studies; ref unpublished data; cited from earlier work
[7] = parameters: method as in unpublished data; details: within 336 h after oral administration; ref unpublished data; cited from earlier work
[8] = system: BCRP; parameters: method as in unpublished data; details: preclinical studies; ref unpublished data; cited from earlier work
[9] = system: OAT1; parameters: method as in unpublished data; details: preclinical studies; ref unpublished data; cited from earlier work
[10] = parameters: method as in unpublished data; details: preclinical studies; ref unpublished data; cited from earlier work
[11] = system: MDR1; parameters: method as in unpublished data; details: preclinical studies; ref unpublished data; cited from earlier work; remark: listed apart in the source
[12] = quantification limit 0.3 ng/mL
[13] = system: carboxylesterase CES2; parameters: method as in unpublished data; details: preclinical studies; ref unpublished data; cited from earlier work
[14] = N = 12, treatment stage given by label

SMILES: CCC(C)n1ncn(-c2ccc(N3CCN(c4ccc(OCC5COC(Cn6cncn6)(c6ccc(Cl)cc6Cl)O5)cc4)CC3)cc2)c1=O (stereo not shown) [Itraconazole]
- TEAE Alanine aminotransferase increased: no. of TEAEs [1, 14]: 1
- TEAE Alanine aminotransferase increased: no. of subjects (percent of subjects) [1, 14]: 1 (8.3)
- TEAE Basophil count increased: no. of subjects (percent of subjects) [1, 14]: 0
- TEAE Gamma-glutamyltransferase increased: no. of subjects (percent of subjects) [1, 14]: 0
- TEAE Hemoglobin decreased: no. of subjects (percent of subjects) [1, 14]: 0
- TEAE Hepatobiliary disorders: no. of subjects (percent of subjects) [1, 14]: 1 (8.3)
- TEAE Hyperbilirubinemia: no. of subjects (percent of subjects) [1, 14]: 1 (8.3)
- TEAE Hypertriglyceridemia: no. of subjects (percent of subjects) [1, 14]: 1 (8.3)
- TEAE Hyperuricemia: no. of subjects (percent of subjects) [1, 14]: 0
- TEAE Hypophosphatemia: no. of subjects (percent of subjects) [1, 14]: 0
- TEAE Investigations: no. of TEAEs [1, 14]: 2
- TEAE Investigations: no. of subjects (percent of subjects) [1, 14]: 2 (16.7)
- TEAE Lymphocyte count decreased: no. of subjects (percent of subjects) [1, 14]: 0
- TEAE Metabolism and nutrition disorders: no. of subjects (percent of subjects) [1, 14]: 1 (8.3)
- TEAE Occult blood in urine: no. of TEAEs [1, 14]: 1
- TEAE Occult blood in urine: no. of subjects (percent of subjects) [1, 14]: 1 (8.3)
- TEAE Overall total: no. of TEAEs [1, 14]: 4
- TEAE Overall total: no. of subjects (percent of subjects) [1, 14]: 4 (33.3)
- TEAE Red blood cell increased: no. of subjects (percent of subjects) [1, 14]: 0
- TEAE Total bile acid increased: no. of subjects (percent of subjects) [1, 14]: 0
- TEAE White blood cell increased: no. of subjects (percent of subjects) [1, 14]: 0
- TEAE Overall total: no. of subjects (percent of subjects) ([1]; N = 12, treatment stage given by label, listed as itraconazole): 4

SMILES: COC(=O)OCOc1c2n(ccc1=O)N([C@@H]1c3ccccc3SCc3c1ccc(F)c3F)[C@@H]1COC3(CC3)CN1C2=O [GP681, (((R)-12'-((S)-7,8-difluoro-6, 11-dihydro-2-benzothiophene-11-yl)-6′, 8′-dioxide-6′, 8′, 12′, 12a′-tetrahydro-1′H-, 4′H-spiro [cyclopropane-1, 3'-[1, 4]oxazine [3,4-c]pyridine and [2,1-f] [1,2, 4]triazine]-7′-yl)oxy) methyl carbonate]
- inhibition of transport activity of OAT3 [2]: nor do they inhibit the transport activity
- inhibition of transport activity of OATP1B1 [3]: nor do they inhibit the transport activity
- inhibition of transport activity of OATP1B3 [4]: nor do they inhibit the transport activity
- inhibition or induction of liver enzymes [5]: do not significantly inhibit or induce liver enzymes
- substrate for the MDR1 transporter [6]: Neither Suraxavir Marboxil (GP681) nor its metabolite, GP1707D07, serves as substrates
- radioactivity recovery in feces [7]: 84.1%
- radioactivity recovery in urine [7]: 6.0%
- total radioactivity recovery rate [7]: 90.1%
- substrate for the BCRP transporter [8]: Neither Suraxavir Marboxil (GP681) nor its metabolite, GP1707D07, serves as substrates
- inhibition of transport activity of OAT1 [9]: nor do they inhibit the transport activity
- detection of prodrug in plasma following oral administration [10]: scarcely detected in plasma
- route of excretion [10]: mainly excreted in feces
- inhibition of transport activity of MDR1 [11]: nor do they inhibit the transport activity
- plasma concentrations of GP681 in all the rest of blood samples [12]: below the quantification limit
- conversion of prodrug to active form [13]: converted to an active form GP1707D07 by carboxylesterase CES2
- TEAE Alanine aminotransferase increased: no. of TEAEs [1, 14]: 1
- TEAE Alanine aminotransferase increased: no. of subjects (percent of subjects) [1, 14]: 1 (8.3)
- TEAE Basophil count increased: no. of subjects (percent of subjects) [1, 14]: 0
- TEAE Gamma-glutamyltransferase increased: no. of TEAEs [1, 14]: 1
- TEAE Gamma-glutamyltransferase increased: no. of subjects (percent of subjects) [1, 14]: 1 (8.3)
- TEAE Hemoglobin decreased: no. of TEAEs [1, 14]: 1
- TEAE Hemoglobin decreased: no. of subjects (percent of subjects) [1, 14]: 1 (8.3)
- TEAE Hepatobiliary disorders: no. of subjects (percent of subjects) [1, 14]: 0
- TEAE Hyperbilirubinemia: no. of subjects (percent of subjects) [1, 14]: 0
- TEAE Hypertriglyceridemia: no. of TEAEs [1, 14]: 1
- TEAE Hypertriglyceridemia: no. of subjects (percent of subjects) [1, 14]: 1 (8.3)
- TEAE Hyperuricemia: no. of TEAEs [1, 14]: 1
- TEAE Hyperuricemia: no. of subjects (percent of subjects) [1, 14]: 1 (8.3)
- TEAE Hypophosphatemia: no. of subjects (percent of subjects) [1, 14]: 0
- TEAE Investigations: no. of TEAEs [1, 14]: 7
- TEAE Investigations: no. of subjects (percent of subjects) [1, 14]: 4 (33.3)
- TEAE Lymphocyte count decreased: no. of TEAEs [1, 14]: 1
- TEAE Lymphocyte count decreased: no. of subjects (percent of subjects) [1, 14]: 1 (8.3)
- TEAE Metabolism and nutrition disorders: no. of TEAEs [1, 14]: 2
- TEAE Metabolism and nutrition disorders: no. of subjects (percent of subjects) [1, 14]: 2 (16.7)
- TEAE Occult blood in urine: no. of TEAEs [1, 14]: 1
- TEAE Occult blood in urine: no. of subjects (percent of subjects) [1, 14]: 1 (8.3)
- TEAE Overall total: no. of TEAEs [1, 14]: 9
- TEAE Overall total: no. of subjects (percent of subjects) [1, 14]: 5 (41.7)
- TEAE Red blood cell increased: no. of TEAEs [1, 14]: 1
- TEAE Red blood cell increased: no. of subjects (percent of subjects) [1, 14]: 1 (8.3)
- TEAE Total bile acid increased: no. of TEAEs [1, 14]: 1
- TEAE Total bile acid increased: no. of subjects (percent of subjects) [1, 14]: 1 (8.3)
- TEAE White blood cell increased: no. of subjects (percent of subjects) [1, 14]: 0
- TEAE related to GP681, Alanine aminotransferase increased: no. of TEAEs [1, 14]: 1[1]
- TEAE related to GP681, Alanine aminotransferase increased: no. of subjects [1, 14]: 1[1]
- TEAE related to GP681, Gamma-glutamyltransferase increased: no. of TEAEs [1, 14]: 1[1]
- TEAE related to GP681, Gamma-glutamyltransferase increased: no. of subjects [1, 14]: 1[1]
- TEAE related to GP681, Hemoglobin decreased: no. of TEAEs [1, 14]: 1[1]
- TEAE related to GP681, Hemoglobin decreased: no. of subjects [1, 14]: 1[1]
- TEAE related to GP681, Hypertriglyceridemia: no. of TEAEs [1, 14]: 1[1]
- TEAE related to GP681, Hypertriglyceridemia: no. of subjects [1, 14]: 1[1]
- TEAE related to GP681, Hypophosphatemia: no. of TEAEs [1, 14]: 1[1]
- TEAE related to GP681, Hypophosphatemia: no. of subjects [1, 14]: 1[1]
- TEAE related to GP681, Investigations: no. of TEAEs [1, 14]: 7
- TEAE related to GP681, Investigations: no. of subjects [1, 14]: 3
- TEAE related to GP681, Lymphocyte count decreased: no. of TEAEs [1, 14]: 1[1]
- TEAE related to GP681, Lymphocyte count decreased: no. of subjects [1, 14]: 1[1]
- TEAE related to GP681, Metabolism and nutrition disorders: no. of TEAEs [1, 14]: 2[2]
- TEAE related to GP681, Metabolism and nutrition disorders: no. of subjects [1, 14]: 2[2]
- TEAE related to GP681, Occult blood in urine: no. of TEAEs [1, 14]: 1[1]
- TEAE related to GP681, Occult blood in urine: no. of subjects [1, 14]: 1[1]
- TEAE related to GP681, Overall total: no. of TEAEs [1, 14]: 9
- TEAE related to GP681, Overall total: no. of subjects [1, 14]: 4
- TEAE related to GP681, Red blood cell increased: no. of TEAEs [1, 14]: 1[1]
- TEAE related to GP681, Red blood cell increased: no. of subjects [1, 14]: 1[1]
- TEAE related to GP681, Total bile acid increased: no. of TEAEs [1, 14]: 1[1]
- TEAE related to GP681, Total bile acid increased: no. of subjects [1, 14]: 1[1]
- TEAE Overall total: no. of subjects (percent of subjects) ([1]; N = 12, treatment stage given by label, listed as Suraxavir Marboxil (GP681)): 5
- TEAE related to GP681, Overall total: no. of TEAEs ([1]; Total over the study, N = 12): 11
- TEAE related to GP681, Overall total: no. of subjects ([1]; Total over the study, N = 12): 5
- serious adverse events ([1]; whole study, 12 subjects): No serious adverse events
